For orientation: IC50 means the concentration at which inhibition is half-maximal. A word on the microsomal CLint: it is a measure of how fast metabolising enzymes remove a compound, apart from limits set by blood flow. Low readings indicate greater metabolic stability, high ones faster metabolism.

The values that follow come from PMC12627232 (MedComm, 2025).

One data set deals with MC38 syngeneic model. The data set is described as follows: MC38 syngeneic model. It counts as in vivo. On the procedure:
C57BL/6J mice were obtained from HFK Bioscience (Beijing, China) and fed in laminar flow cabinets under SPF conditions. With the approval of the ethics committee of Shandong University, the animal experiments were conducted. […]. By the time tumors reached certain volumes, SDFZ‐8 treatment (SDFZ‐8 in PBS solution containing 5% DMSO, 60 mg/kg, qd, i.g.) was started, with five animals per treatment group. Body weight and tumor size were measured every day during the 14‐day treatment.

In a further data set the test system is KM3. The data set is described as follows: CCK-8 antiproliferation assay. The note with it: Homo sapiens, 48 h treatment. It counts as cell-based. On the procedure:
(§1) Cell lines purchased from the Cell Bank of Type Culture Collection of the Chinese Academy of Sciences (Shanghai, China) were passaged after resuscitation. […] The third to tenth passages of cells were used for experiments. […] After incubation, 20 µL CCK‐8 solution (MeilunBio) was added. Two hours later, absorption was measured by a Varioskan plate at 450 nm. Inhibition curves and IC50 values were simulated and calculated using the log(inhibitor) versus response (three parameters) mode via GraphPad Prism software.
For orientation: Formazan colour is commonly taken as a measure of viable cells.

Another data set relates to HL-60. In words: CCK-8 antiproliferation assay. It counts as cell-based. The note with it: Homo sapiens, 48 h treatment. On the procedure:
as §1

In the next data set the test system is PC-3. In words: CCK-8 antiproliferation assay. It counts as cell-based. To be noted: Homo sapiens, 48 h treatment. On the procedure: as §1
The next data set deals with Jurkat. In words: CCK-8 antiproliferation assay. The note with it: Homo sapiens, 48 h treatment. It counts as cell-based. On the procedure:
as §1

In a further data set the test system is AGS. The data set is described as follows: CCK-8 antiproliferation assay. It counts as cell-based. To be noted: Homo sapiens, 48 h treatment. On the procedure:
as §1

The subject of a further data set is RPMI-8226. In words: CCK-8 antiproliferation assay. It counts as cell-based. The note with it: Homo sapiens, 48 h treatment. On the procedure:
as §1

Another data set has as its system NCI-H929. The data set is described as follows: CCK-8 antiproliferation assay. It counts as cell-based. The note with it: Homo sapiens, 48 h treatment. On the procedure: as §1
The test system of the next data set is MCF-7. In words: CCK-8 antiproliferation assay. The note with it: Homo sapiens, MCF7, 48 h treatment. It counts as cell-based. On the procedure:
as §1

A further data set has as its system MDA-MB-231. In words: CCK-8 antiproliferation assay. It counts as cell-based, human. On the procedure: as §1
Data set [1] can be described thus: In vitro metabolic assay, mouse liver microsomes. It counts as in vitro ADME. On the procedure:
Compounds were prepared in a working solution of 2 mg/mL with methanol. […]; Research Institute for Liver Disease (Shanghai) Co., Ltd) were mixed with NADPH (the final concentration is 4 mM), MgCl2 (the final concentration is 6 mM), and shaken at 37°C for 5 min. Then, compound solutions were added to the system and incubated for 0, 10, 20, 30, 60, 90, and 120 min at 37°C under shaking conditions. The mixture was quenched with cold acetonitrile and analyzed with a Shimadzu LC‐20AT system and a C18‐silica column (Thermo; 4.6 × 250 mm, 5 µm).

The target in a further data set is T1, HDAC9 (Homo sapiens, UniProt Q9UKV0).
T1 construct: purchased BPS BIOSCIENCE Inc 50009
T1 sequence (Q9UKV0 whole entry): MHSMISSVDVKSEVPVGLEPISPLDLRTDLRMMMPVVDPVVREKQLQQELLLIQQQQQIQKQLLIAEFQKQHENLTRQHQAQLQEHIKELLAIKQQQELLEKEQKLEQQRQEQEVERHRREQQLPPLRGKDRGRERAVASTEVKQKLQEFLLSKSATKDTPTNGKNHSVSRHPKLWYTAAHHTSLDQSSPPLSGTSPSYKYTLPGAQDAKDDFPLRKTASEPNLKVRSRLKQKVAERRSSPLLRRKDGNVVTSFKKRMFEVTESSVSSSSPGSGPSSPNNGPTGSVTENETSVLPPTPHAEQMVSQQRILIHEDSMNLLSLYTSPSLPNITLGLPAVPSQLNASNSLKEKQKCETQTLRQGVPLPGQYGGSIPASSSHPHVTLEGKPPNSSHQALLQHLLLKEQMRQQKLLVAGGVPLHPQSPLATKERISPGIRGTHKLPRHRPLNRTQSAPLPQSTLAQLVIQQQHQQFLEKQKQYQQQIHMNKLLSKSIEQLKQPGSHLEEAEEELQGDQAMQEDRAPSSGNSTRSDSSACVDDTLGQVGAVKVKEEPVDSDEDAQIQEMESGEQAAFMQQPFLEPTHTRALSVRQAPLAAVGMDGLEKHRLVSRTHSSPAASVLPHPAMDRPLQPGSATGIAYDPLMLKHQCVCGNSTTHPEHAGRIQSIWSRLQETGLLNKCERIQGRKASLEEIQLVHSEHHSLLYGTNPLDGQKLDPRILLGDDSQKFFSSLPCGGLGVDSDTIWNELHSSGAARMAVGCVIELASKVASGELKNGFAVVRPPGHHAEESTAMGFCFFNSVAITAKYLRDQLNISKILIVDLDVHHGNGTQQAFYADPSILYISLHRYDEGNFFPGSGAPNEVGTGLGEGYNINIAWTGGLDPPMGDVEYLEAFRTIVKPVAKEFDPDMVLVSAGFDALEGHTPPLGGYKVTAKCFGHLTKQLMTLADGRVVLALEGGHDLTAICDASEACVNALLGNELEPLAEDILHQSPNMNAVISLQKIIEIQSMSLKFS
The data set is described as follows: HDACs enzymatic assay HDAC9. It counts as biochemical. The note with it: Class IIa. The procedure:
(§2) HDACs enzymatic assays were conducted according to our previous work. […] Substrates (Boc‐Lys(acetyl)‐AMC for HeLa nuclear extract, Ac‐Leu‐Gly‐Lys (Tfa)‐AMC for HDAC4, HDAC5, HDAC6, HDAC7, HDAC9, HDAC10, and HDAC11, Boc‐Lys(triflouroacetyl)‐AMC for HDAC8 and Ac‐Leu‐Gly‐Lys(acetyl)‐AMC for HDAC1, HDAC2, HDAC3) were added to the mixture. The blank group was set to no enzyme or drug but contains substrates and the control group was set to no drug but contains substrates and enzymes to each 96‐well plate. After 30 min of incubation at 37°C, the mixture was terminated with 1 mg/mL trypsin and 3 µM TSA. After another 30 min, the fluorescence intensity was measured using a Varioskan plate reader at 360/460 nm. […] The inhibition curves and IC50 values were simulated and calculated using the log(inhibitor) versus response (three parameters) mode in GraphPad Prism software.

The next data set deals with T2, HDAC5 (Homo sapiens, UniProt Q9UQL6).
T2 construct: purchased BPS BIOSCIENCE Inc 50005
T2 sequence (Q9UQL6 whole entry): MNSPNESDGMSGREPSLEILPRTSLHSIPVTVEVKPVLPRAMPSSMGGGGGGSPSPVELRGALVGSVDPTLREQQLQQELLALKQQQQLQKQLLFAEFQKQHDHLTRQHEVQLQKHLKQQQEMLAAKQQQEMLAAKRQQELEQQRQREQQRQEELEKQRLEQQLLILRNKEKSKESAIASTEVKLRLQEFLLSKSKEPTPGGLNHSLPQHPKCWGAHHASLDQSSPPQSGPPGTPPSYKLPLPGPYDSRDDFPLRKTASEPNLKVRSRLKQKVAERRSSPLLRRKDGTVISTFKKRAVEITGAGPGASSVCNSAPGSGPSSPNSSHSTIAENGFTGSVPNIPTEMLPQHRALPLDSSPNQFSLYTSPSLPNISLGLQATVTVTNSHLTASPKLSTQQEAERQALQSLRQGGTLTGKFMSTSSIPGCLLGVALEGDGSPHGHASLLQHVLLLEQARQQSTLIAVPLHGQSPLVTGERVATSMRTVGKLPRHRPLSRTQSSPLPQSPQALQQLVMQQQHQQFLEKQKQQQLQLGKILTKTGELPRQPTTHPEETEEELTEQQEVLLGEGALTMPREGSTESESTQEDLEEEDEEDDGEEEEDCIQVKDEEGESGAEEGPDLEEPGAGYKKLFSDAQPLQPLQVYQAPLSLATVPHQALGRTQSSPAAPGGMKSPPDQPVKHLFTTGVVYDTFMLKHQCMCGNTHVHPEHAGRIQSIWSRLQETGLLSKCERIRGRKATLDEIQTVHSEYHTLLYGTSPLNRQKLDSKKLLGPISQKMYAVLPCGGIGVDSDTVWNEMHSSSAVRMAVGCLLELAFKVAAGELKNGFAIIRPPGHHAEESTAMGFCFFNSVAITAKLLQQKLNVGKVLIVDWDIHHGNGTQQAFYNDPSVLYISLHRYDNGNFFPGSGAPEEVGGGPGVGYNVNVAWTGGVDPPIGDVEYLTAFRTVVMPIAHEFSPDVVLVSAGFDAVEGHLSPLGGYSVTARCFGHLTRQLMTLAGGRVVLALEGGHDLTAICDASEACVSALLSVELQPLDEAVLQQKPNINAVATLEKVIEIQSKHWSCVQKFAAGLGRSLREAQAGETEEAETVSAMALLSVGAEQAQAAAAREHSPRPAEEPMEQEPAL
The data set is described as follows: HDACs enzymatic assay HDAC5. It counts as biochemical. The note with it: Class IIa. The procedure:
as §2

Another data set addresses T3, HDAC11 (Homo sapiens, UniProt Q96DB2).
T3 construct: purchased BPS BIOSCIENCE Inc 50011
In words: HDACs enzymatic assay HDAC11. It counts as biochemical. To be noted: Class IV. On the procedure:
as §2

A further data set deals with T4, HDAC8 (Homo sapiens, UniProt Q9BY41).
T4 construct: purchased BPS BIOSCIENCE Inc 50008
T4 sequence (Q9BY41 whole entry): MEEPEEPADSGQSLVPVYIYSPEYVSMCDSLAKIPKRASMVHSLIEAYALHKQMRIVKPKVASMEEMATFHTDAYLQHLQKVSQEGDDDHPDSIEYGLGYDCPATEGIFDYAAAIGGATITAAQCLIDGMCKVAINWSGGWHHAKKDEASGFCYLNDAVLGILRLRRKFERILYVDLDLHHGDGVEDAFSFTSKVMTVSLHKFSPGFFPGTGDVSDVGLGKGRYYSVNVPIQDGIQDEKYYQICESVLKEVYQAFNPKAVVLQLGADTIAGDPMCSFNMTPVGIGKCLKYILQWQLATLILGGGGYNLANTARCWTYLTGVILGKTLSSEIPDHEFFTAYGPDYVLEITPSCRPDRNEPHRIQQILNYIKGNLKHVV
The data set is described as follows: HDACs enzymatic assay HDAC8. It counts as biochemical. The procedure: as §2

For the next data set, the system named is MDA-MB-231 cells. In words: TUNEL assay. To be noted: MDA-MB-231, 5 µM, 24 h. It counts as cell-based, human. The procedure: The TUNEL assay was performed with the one‐step TUNEL apoptosis kit (MeilunBio) according to the manual from the manufacturer. Briefly, cells (5 × 10^5 cells per plate) were seeded in confocal dishes and incubated with drugs for 24 h. The medium was removed, and cells were fixed with 4% polyoxymethylene solution for 30 min. Subsequently, cells were treated with 20 µg/mL protease K for 5 min and TUNEL working solution for 1 h at 37°C. Eventually, cells were captured with a Leica TCS SP8 super‐resolution laser scanning confocal microscope.

For the next data set, the system named is B16F10 syngeneic model. The data set is described as follows: B16F10 syngeneic model. The note with it: C57BL/6J mice, HDAC inhibitors by oral gavage, anti-PD-L1 intraperitoneal, 7-day treatment. It counts as in vivo. The procedure:
With the approval of the ethics committee of Shandong University, C57BL/6J mice were purchased from Charles River and fed in SPF conditions at the Model Animal Research Centre of Shandong University. To establish the B16F10 syngeneic model, cells in logarithmic growth phase were trypsinized with 0.25% trypsin, resuspended in sterile PBS, and adjusted to 1 × 10^6 cells/100 µL. The cell suspension (100 µL) was subcutaneously injected into the left axilla. When tumors reached to certain volume, mice were randomized (n = 5/group) and treated with Chidamide, LBH‐589, or SDFZ‐8 by oral gavage and intraperitoneal injection of anti‐PD‐L1. Tumor growth curves were plotted over a 7‐day treatment cycle. All procedures complied with AAALAC International guidelines for humane endpoint criteria.

T3 sequence (Q96DB2 whole entry): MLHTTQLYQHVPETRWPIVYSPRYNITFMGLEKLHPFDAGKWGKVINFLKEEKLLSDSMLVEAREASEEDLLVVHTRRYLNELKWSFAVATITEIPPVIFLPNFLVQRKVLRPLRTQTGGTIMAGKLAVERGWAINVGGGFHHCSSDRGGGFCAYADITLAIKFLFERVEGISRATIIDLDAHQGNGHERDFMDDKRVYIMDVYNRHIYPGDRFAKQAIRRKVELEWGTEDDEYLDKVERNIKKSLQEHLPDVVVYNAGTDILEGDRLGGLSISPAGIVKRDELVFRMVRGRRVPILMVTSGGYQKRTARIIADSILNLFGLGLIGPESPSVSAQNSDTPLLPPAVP

For the molecule `O=C(CCCCCCNC(=O)c1cc(OCCc2ccccc2)c2ccccc2n1)NO` [SDFZ-8], in the data set on MC38 syngeneic model, the “toxicity in organs (heart, liver, spleen, lung, kidney), H&E staining” value is “low toxicity”. For the same molecule, the TGI in the data set on MC38 syngeneic model (C57BL/6J mice, SDFZ-8 60 mg/kg qd i.g., 14-day treatment) was found to be 71%; in the data set with B16F10 syngeneic model, 75%. Further, the half-inhibitory concentration (IC50) was 100 ± 5 nM in the data set with KM3; 94 ± 4 nM with HL-60; 620 ± 70 nM with PC-3; 89 ± 1 nM in the data set on Jurkat; 560 ± 20 nM in the data set on AGS; 460 ± 30 nM with RPMI-8226. The IC50 with NCI-H929 is 100 ± 5 nM; in the data set on MCF-7, 1960 ± 60 nM; in the data set on MDA-MB-231 (Homo sapiens, MDA-MB-231, 48 h treatment, CCK-8) it was 470 ± 80 nM; against HDAC9 it was > 10000 nM; against HDAC5, > 10000 nM; against HDAC11, > 10000 nM. Also, the IC50 against HDAC8 (Class I, mean ± SD of three) was found to be 750 ± 70 nM. The “antiproliferation activity better than SAHA” value with MDA-MB-231 (MDA-MB-231 cells, versus SAHA) is recorded as “threefold”. Further, the half-life in data set [1] (mouse liver microsomes, read-out: half-life T 1/2 in mouse liver microsomes) worked out at 12.3 min. The molecule further yielded a microsomal CLint in data set [1] (mouse, microsomes) of 56.3 µL/min/mg. Besides, at HDAC8 (relative to HDAC1), the “selectivity toward HDAC8” value is “more than 800 fold”. For the same molecule, in the data set on MDA-MB-231 cells, the “TUNEL green fluorescence (apoptosis)” value was “higher intensity of green fluorescence compared with SAHA”.
